Experimental findings from patent US20160280699A1, “SUBSTITUTED PHENYLALANINE DERIVATIVES” (BAYER PHARMA AKTIENGESELLSCHAFT, priority 2013, published 2016) are described below.

Experiment [1] relates to human and animal plasma. Put plainly: Determination of anticoagulatory activity: activated partial thromboplastin time (aPTT) in plasma. It counts as biochemical. The settings on record: concentration of test substance which brings about a 1.5-fold extension of the aPTT, 37° C., C.K. Prest kit. The procedure:
The anticoagulatory activity of the test substances is determined in vitro in human and animal plasma (for example mouse, rat, rabbit, pig and dog plasma). To this end, blood is drawn off in a mixing ratio of sodium citrate/blood of 1:9 using a 0.11 molar sodium citrate solution as receiver. Immediately after the blood has been drawn off, it is mixed thoroughly and centrifuged at about 4000 g for 15 minutes. The supernatant is pipetted off.
The activated partial thromboplastin time (aPTT) is determined in the presence of varying concentrations of test substance or the corresponding solvent using a commercial test kit (C.K. Prest from Diagnostica Stago). The test compounds are incubated with the plasma and the PTT reagent (cephalin, kaolin) at 37° C. for 3 minutes. Coagulation is then started by addition of a 25 mM aqueous calcium chloride solution, and the time when coagulation occurs is determined. The concentration of test substance which brings about a 1.5-fold extension of the aPTT is determined Activity data from this test are listed in Table B below: […]

In experiment [2] the target is T1, human factor XIa (Homo sapiens, UniProt P03951).
T1 construct: purchased Kordia
T1 sequence (P03951 388-625 limits assumed): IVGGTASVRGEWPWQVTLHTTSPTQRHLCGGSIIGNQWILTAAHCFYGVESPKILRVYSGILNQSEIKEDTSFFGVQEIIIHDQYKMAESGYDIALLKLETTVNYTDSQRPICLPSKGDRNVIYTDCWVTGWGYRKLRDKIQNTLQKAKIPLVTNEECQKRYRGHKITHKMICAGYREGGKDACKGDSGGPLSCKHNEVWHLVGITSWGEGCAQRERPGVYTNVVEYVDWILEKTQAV
T1 sequence (P03951 19-387 partner limits assumed): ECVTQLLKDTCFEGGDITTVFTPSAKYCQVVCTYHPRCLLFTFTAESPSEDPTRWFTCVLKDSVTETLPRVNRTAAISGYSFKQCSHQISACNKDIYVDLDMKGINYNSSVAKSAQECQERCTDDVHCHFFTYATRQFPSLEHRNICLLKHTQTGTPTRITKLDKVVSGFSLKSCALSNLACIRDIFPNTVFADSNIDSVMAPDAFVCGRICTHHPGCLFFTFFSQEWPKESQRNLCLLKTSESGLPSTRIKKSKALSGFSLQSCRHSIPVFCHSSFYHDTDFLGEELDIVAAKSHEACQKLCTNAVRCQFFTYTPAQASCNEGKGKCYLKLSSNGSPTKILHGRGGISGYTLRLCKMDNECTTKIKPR
Kind of experiment: Measurement of FXIa inhibition (fluorogenic peptide substrate Boc-Glu(OBzl)-Ala-Arg-AMC). It counts as biochemical. Conditions: factor XIa from Kordia, 15 min preincubation, 30 min at 22° C., fluorescence. The procedure: The factor XIa inhibition of the substances according to the invention is determined using a biochemical test system which utilizes the reaction of a peptidic factor XIa substrate to determine the enzymatic activity of human factor XIa. Here, factor XIa cleaves from the peptic factor XIa substrate the C-terminal aminomethylcoumarin (AMC), the fluorescence of which is measured. The determinations are carried out in microtitre plates.
Test substances are dissolved in dimethyl sulphoxide and serially diluted in dimethyl sulphoxide (3000 μM to 0.0078 μM; resulting final concentrations in the test: 50 μM to 0.00013 μM). In each case 1 μl of the diluted substance solutions is placed into the wells of white microtitre plates from Greiner (384 wells). Subsequently, the following are added successively: 20 μl of assay buffer (50 mmol/l Tris buffer pH 7.4; 100 mmol/l sodium chloride; 5 mmol/l calcium chloride; 0.1% bovine serum albumin) and 20 μl of factor XIa from Kordia (0.45 nM in assay buffer). After 15 min of incubation, the enzyme reaction is started by addition of 20 μl of the factor XIa substrate Boc-Glu(OBzl)-Ala-Arg-AMC dissolved in assay buffer (10 μM in assay buffer) from Bachem, the mixture is incubated at room temperature (22° C.) for 30 min and fluorescence is then measured (excitation: 360 nm, emission: 460 nm). The measured emissions of the test batches with test substance are compared to those of control batches without test substance (only dimethyl sulphoxide instead of test substance in dimethyl sulphoxide), and IC50 values are calculated from the concentration/activity relationships.

pIC50: −log10 of the molar value. Structures can show the parent of a compound that is named as a salt.

With `NC[C@H]1CC[C@H](C(=O)N[C@@H](Cc2ccc(-c3ccnc(N4CCOCC4)c3)cc2)C(=O)Nc2ccc(-c3nn[nH]n3)cc2)CC1` [Example 35, N-alpha-{[trans-4-(Aminomethyl)cyclohexyl]carbonyl}-4-[2-(morpholin-4-yl)pyridin-4-yl]-N-[4-(2H-tetrazol-5-yl)phenyl]-L-phenylalaninamide hydrochloride], the “aPTT” value in experiment [1] amounted to 0.48 µmol/L. In addition, the pIC50 – broadly, the IC50 on a negative log10 scale, so that one unit is a factor of ten – in experiment [2] is 8.26.
For `NC[C@H]1CC[C@H](C(=O)N[C@@H](Cc2ccc(-c3cccnc3O)cc2)C(=O)Nc2ccc(-c3nn[nH]n3)cc2)CC1` [Example 37, N-alpha-{[trans-4-(Aminomethyl)cyclohexyl]carbonyl}-4-(2-hydroxypyridin-3-yl)-N-[4-(2H-tetrazol-5-yl)phenyl]-L-phenylalaninamide hydrochloride], in that order: 0.26 µmol/L and 8.28.
For `CS(=O)(=O)c1cncc(-c2ccc(C[C@H](NC(=O)[C@H]3CC[C@H](CN)CC3)C(=O)Nc3ccc(-c4nn[nH]n4)cc3)cc2)c1` [Example 39, N-alpha-{[trans-4-(Aminomethyl)cyclohexyl]carbonyl}-4-[5-(methylsulphonyl)pyridin-3-yl]-N-[4-(2H-tetrazol-5-yl)phenyl]-L-phenylalaninamide hydrochloride], in that order: 0.38 µmol/L and 7.82.
The corresponding values for `NC[C@H]1CC[C@H](C(=O)N[C@@H](Cc2ccc(-c3cnc(N4CCCCC4)nc3O)cc2)C(=O)Nc2ccc(-c3nn[nH]n3)cc2)CC1` [Example 40, N-alpha-{[trans-4-(Aminomethyl)cyclohexyl]carbonyl}-4-[4-hydroxy-2-(piperidin-1-yl)pyrimidin-5-yl]-N-[4-(2H-tetrazol-5-yl)phenyl]-L-phenylalaninamide hydrochloride] are 0.08 µmol/L and 8.59.
Turning to `Cc1cc(N2CCNCC2)ncc1-c1ccc(C[C@H](NC(=O)[C@H]2CC[C@H](CN)CC2)C(=O)Nc2ccc(-c3nn[nH]n3)cc2)cc1` [Example 41, N-alpha-{[trans-4-(Aminomethyl)cyclohexyl]carbonyl}-4-[4-methyl-6-(piperazin-1-yl)pyridin-3-yl]-N-[4-(2H-tetrazol-5-yl)phenyl]-L-phenylalaninamide hydrochloride], the “aPTT” value in experiment [1] came out at 0.06 µmol/L. Besides, the pIC50 in experiment [2] was 8.49.
For `NC[C@H]1CC[C@H](C(=O)N[C@@H](Cc2ccc(-c3ccnc(N4CCOCC4)c3Cl)cc2)C(=O)Nc2ccc(-c3nn[nH]n3)cc2)CC1` [Example 43, N-alpha-{[trans-4-(Aminomethyl)cyclohexyl]carbonyl}-4-[3-chloro-2-(morpholin-4-yl)pyridin-4-yl]-N-[4-(2H-tetrazol-5-yl)phenyl]-L-phenylalaninamide hydrochloride], in that order: 0.37 µmol/L and 8.74.
The corresponding values for `NC[C@H]1CC[C@H](C(=O)N[C@@H](Cc2ccc(-c3ccc(N4CCOCC4)nc3)c(F)c2)C(=O)Nc2ccc(-c3nn[nH]n3)cc2)CC1` [Example 44, N-alpha-{[trans-4-(Aminomethyl)cyclohexyl]carbonyl}-3-fluoro-4-[6-(morpholin-4-yl)pyridin-3-yl]-N-[4-(2H-tetrazol-5-yl)phenyl]-L-phenylalaninamide hydrochloride] are 0.22 µmol/L and 8.70.
On to `CN(C)CCCOc1ccc(-c2ccc(C[C@H](NC(=O)[C@H]3CC[C@H](CN)CC3)C(=O)Nc3ccc(-c4nn[nH]n4)cc3)cc2F)cn1` [Example 45, N-alpha-{[trans-4-(Aminomethyl)cyclohexyl]carbonyl}-4-{6-[3-(dimethylamino)propoxy]pyridin-3-yl}-3-fluoro-N-[4-(2H-tetrazol-5-yl)phenyl]-L-phenylalaninamide hydrochloride], for which the “aPTT” value in experiment [1] was determined as 0.35 µmol/L. Further, the pIC50 in experiment [2] is 7.89.
The corresponding values for `NC[C@H]1CC[C@H](C(=O)N[C@@H](Cc2ccc(-c3ccnc(N4CCOCC4)c3F)cc2)C(=O)Nc2ccc(-c3nn[nH]n3)cc2)CC1` [Example 46, N-alpha-{[trans-4-(Aminomethyl)cyclohexyl]carbonyl}-4-[3-fluoro-2-(morpholin-4-yl)pyridin-4-yl]-N-[4-(2H-tetrazol-5-yl)phenyl]-L-phenylalaninamide hydrochloride] are 0.45 µmol/L and 8.43.
The corresponding values for `Cc1cc(N2CCNCC2)ncc1-c1ccc(C[C@H](NC(=O)[C@H]2CC[C@H](CN)CC2)C(=O)Nc2ccc(-c3nn[nH]n3)c(F)c2)cc1` [Example 47, N-alpha-{[trans-4-(Aminomethyl)cyclohexyl]carbonyl}-N-[3-fluoro-4-(2H-tetrazol-5-yl)phenyl]-4-[4-methyl-6-(piperazin-1-yl)pyridin-3-yl]-L-phenylalaninamide hydrochloride] are 0.08 µmol/L and 8.96.
The corresponding values for `Cc1cc(N2CCNCC2)ncc1-c1ccc(C[C@H](NC(=O)[C@H]2CC[C@H](CN)CC2)C(=O)Nc2ccc(-c3nnc(Cl)[nH]3)cc2)cc1` [Example 48, N-alpha-{[trans-4-(Aminomethyl)cyclohexyl]carbonyl}-N-[4-(3-chloro-4H-1,2,4-triazol-5-yl)phenyl]-4-[4-methyl-6-(piperazin-1-yl)pyridin-3-yl]-L-phenylalaninamide hydrochloride] are 0.11 µmol/L and 8.46.
For `NC[C@H]1CC[C@H](C(=O)N[C@@H](Cc2ccc(-c3cncc(N)c3)cc2)C(=O)Nc2ccc(-c3nnn[nH]3)cc2)CC1` [Example 49, N-alpha-{[trans-4-(Aminomethyl)cyclohexyl]carbonyl}-4-(5-aminopyridin-3-yl)-N-[4-(1H-tetrazol-5-yl)phenyl]-L-phenylalaninamide hydrochloride], the “aPTT” value in experiment [1] was determined as 0.14 µmol/L. In experiment [2], this compound gave a pIC50 of 8.49.
For `NC[C@H]1CC[C@H](C(=O)N[C@@H](Cc2ccc(-c3cccnc3C(F)(F)F)cc2)C(=O)Nc2ccc(-c3nnn[nH]3)cc2)CC1` [Example 50, N-alpha-{[trans-4-(Aminomethyl)cyclohexyl]carbonyl}-N-[4-(1H-tetrazol-5-yl)phenyl]-4-[2-(trifluoromethyl)pyridin-3-yl]-L-phenylalaninamide hydrochloride], in that order: 0.16 µmol/L and 8.89.
Regarding `Cc1nc(N)ccc1-c1ccc(C[C@H](NC(=O)[C@H]2CC[C@H](CN)CC2)C(=O)Nc2ccc(-c3nnn[nH]3)cc2)cc1` [Example 51, N-alpha-{[trans-4-(Aminomethyl)cyclohexyl]carbonyl}-4-(6-amino-2-methylpyridin-3-yl)-N-[4-(1H-tetrazol-5-yl)phenyl]-L-phenylalaninamide hydrochloride], the “aPTT” value in experiment [1] worked out at 0.19 µmol/L. For the same compound, the pIC50 in experiment [2] was 8.43.
The corresponding values for `NC[C@H]1CC[C@H](C(=O)N[C@@H](Cc2ccc(-c3cncc(S(=O)(=O)NC4CCNCC4)c3)cc2)C(=O)Nc2ccc(-c3nnn[nH]3)cc2)CC1` [Example 52, N-alpha-{[trans-4-(Aminomethyl)cyclohexyl]carbonyl}-4-[5-(piperidin-4-ylsulphamoyl)pyridin-3-yl]-N-[4-(1H-tetrazol-5-yl)phenyl]-L-phenylalaninamide hydrochloride] are 0.21 µmol/L and 8.16.
The corresponding values for `CN1CCN(c2cc(-c3ccc(C[C@H](NC(=O)C4CCC(CN)CC4)C(=O)Nc4ccc(-c5nnn[nH]5)cc4)cc3)ccn2)CC1` (stereo partly drawn) [Example 53, N-alpha-{[trans-4-(Aminomethyl)cyclohexyl]carbonyl}-4-[2-(4-methylpiperazin-1-yl)pyridin-4-yl]-N-[4-(1H-tetrazol-5-yl)phenyl]-L-phenylalaninamide hydrochloride] are 0.21 µmol/L and 7.96.
For `CN1CCN(c2ccc(-c3ccc(C[C@H](NC(=O)C4CCC(CN)CC4)C(=O)Nc4ccc(-c5nnn[nH]5)cc4)cc3)cn2)CC1` (stereo partly drawn) [Example 54, N-alpha-{[trans-4-(Aminomethyl)cyclohexyl]carbonyl}-4-[6-(4-methylpiperazin-1-yl)pyridin-3-yl]-N-[4-(1H-tetrazol-5-yl)phenyl]-L-phenylalaninamide hydrochloride], in that order: 0.21 µmol/L and 8.14.
